Experimental data reported in PubChem BioAssay (NCI).
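Each compound was tested at five concentrations against cells in 96-well plates for 48 hours. Abbreviation: GI50, concentration required for 50% inhibition of growth. TGI: concentration producing complete growth inhibition.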

Tests used:
Test in all cases: inhibition of tumour cell growth, NCI panel, 48 h
HCC-2998 colon = test system: HCC-2998 colon
HCT-116 colon = test system: HCT-116 colon
M14 melanoma = test system: M14 melanoma
MALME-3M melanoma = test system: MALME-3M melanoma
SK-MEL-5 melanoma = test system: SK-MEL-5 melanoma
SK-OV-3 ovarian = test system: SK-OV-3 ovarian
SNB-19 CNS = test system: SNB-19 CNS
SNB-75 CNS = test system: SNB-75 CNS
UO-31 renal = test system: UO-31 renal
HS 578T breast = test system: HS 578T breast

Structure (SMILES) | TGI (HCC-2998 colon) [µM] | TGI (HCT-116 colon) [µM] | TGI (M14 melanoma) [µM] | TGI (MALME-3M melanoma) [µM] | TGI (SK-MEL-5 melanoma) [µM] | TGI (SK-OV-3 ovarian) [µM] | TGI (SNB-19 CNS) [µM] | TGI (SNB-75 CNS) [µM] | TGI (UO-31 renal) [µM] | GI50 (HCC-2998 colon) [µM] | GI50 (HCT-116 colon) [µM] | GI50 (HS 578T breast) [µM] | TGI (HS 578T breast) [µM] | GI50 (MALME-3M melanoma) [µM] | GI50 (SK-MEL-5 melanoma) [µM] | GI50 (SK-OV-3 ovarian) [µM] | GI50 (SNB-19 CNS) [µM] | GI50 (SNB-75 CNS) [µM] | GI50 (UO-31 renal) [µM] | GI50 (M14 melanoma) [µM]
CCOC(=O)C1C(NC(N)=O)N(Cc2ccccc2)C(=O)N1Cc1ccccc1 (stereo not drawn) | > 100 | > 100 | > 100 | > 100 | > 100 | > 100 | > 100 | > 100 | > 100 |  |  |  |  |  |  |  |  |  |  | 
FC(F)(F)c1cccc(CNC2CCN(CCc3ccccc3)CC2)c1 | 37.2 | 76.7 |  | 31 | 24.7 | > 100 | > 100 | 33.6 | > 100 | 17.7 | 22.1 | 17.7 | 57.5 | 16 | 12.3 | 38.9 | 30.8 | 11.7 | 17 | 
OC[C@H]1C[C@](O)(c2ccc(F)cc2)[C@@H](c2ccc(F)cc2)O1 | > 100 | > 100 |  | > 100 | > 100 | > 100 | > 100 | > 100 | > 100 | > 100 | 90.5 | 44.2 | > 100 | > 100 | > 100 | > 100 | > 100 | > 100 | > 100 | 
N#CC1(CCCCl)CCCCC1 | > 100 | > 100 | > 100 | > 100 | > 100 | > 100 | > 100 | > 100 | > 100 |  |  |  |  |  |  |  |  |  |  | 
Cc1ccccc1NC(=O)CC(=O)NNCC(=O)Nc1nnc(-c2ccccc2)s1 | > 100 | > 100 | > 100 |  | > 100 |  | > 100 | 63.8 | > 100 |  |  |  |  |  |  |  |  |  |  | 
Cc1ccccc1NC(=O)C1C(=O)N(c2ccccc2C)C(=O)/C1=N\NC(N)=O (stereo not drawn) | > 100 | > 100 | > 100 | > 100 | > 100 |  | > 100 | 83.7 | > 100 |  |  |  |  |  |  |  |  |  |  | 
CC(C)(C)C1CC[C@H]2c3c([nH]c4ccccc34)[C@H]3C(=O)N(c4ccc(F)cc4)C(=O)[C@H]3[C@H]2C1 (stereo partly drawn) | 28.4 | 25 | 38.4 | 36.8 | 35.8 | 32 | 29.8 | 23 | 29.7 |  |  |  |  |  |  |  |  |  |  | 
O=[N+]([O-])c1ccc(/C=C/c2ccc(/C=C/c3ccc([N+](=O)[O-])cc3[N+](=O)[O-])cc2)c([N+](=O)[O-])c1 | > 100 | > 100 | > 100 | > 100 | > 100 | > 100 |  | > 100 | > 100 |  |  |  |  |  |  |  |  |  |  | 
CCCCC(C(=O)C(=O)Nc1ccccc1CC)C(=O)C(C)C (stereo not drawn) | > 100 | > 100 | > 100 | > 100 | > 100 | > 100 | > 100 |  | > 100 |  |  |  |  |  |  |  |  |  |  | 
CC1(C)CC2=NO[Se]3=C2C(=NO3)C1 | 16.8 | 10.4 | 6.25 |  | 3.28 | 13.1 | 15.3 | 6.96 | 8.73 |  |  |  | 33.1 |  |  |  |  |  |  | 
C#CCCCCCC(=O)N[C@H]1C=C[C@@H]2/C=C(C)/C=C/[C@@H](C)[C@H]([C@H](C)[C@H](O)[C@@H](C)NC(C)=O)OC(=O)/C=C/C=C(C)\C=C\[C@]2(C)C1 | > 40 | > 40 |  | 17.9 | 0.00803 | > 40 | > 40 | > 40 | 8.95 | 6.16 | < 0.004 | 0.00422 | > 40 | 0.567 | < 0.004 | < 0.004 | 0.0247 | 0.0127 | < 0.004 | 
NS(=O)(=O)c1cc2c(cc1Cl)NCNS2(=O)=O | > 100 | > 100 | > 100 | > 100 | > 100 |  | > 100 | > 100 | > 100 |  |  |  | > 100 |  |  |  |  |  |  | 
C/C(=C\c1ccccc1)C(O)C(=O)c1nc2ccc(Cl)cc2[nH]c1=O (stereo not drawn) | > 100 | > 100 | > 100 | > 100 | > 100 | > 100 | > 100 |  | > 100 |  |  |  |  |  |  |  |  |  |  | 
O=C(O)c1cn(C2CC2)c2cc(N3CCN(C(=O)N(c4ccccc4)c4nc(-c5ccccc5)cs4)CC3)c(F)cc2c1=O | > 100 | > 100 | > 100 |  | > 100 |  | > 100 | 2.8 |  | 0.595 | 0.351 | 0.393 | > 100 |  | 0.717 |  | 0.416 | 0.334 |  | 0.437
COC(=O)C1CC(=O)O[C@H]1c1ccc(OC)c(OC)c1 (stereo partly drawn) | > 100 | > 100 | > 100 | > 100 | > 100 | > 100 |  | > 100 | > 100 |  |  |  |  |  |  |  |  |  |  | 
CN(C)c1ccc(/C=c2/sc3nc(=O)c(-c4ccccc4NC(=O)C(F)(F)F)nn3c2=O)cc1 | > 100 |  | > 100 | > 100 | > 100 | > 100 | > 100 | > 100 | > 100 |  |  |  |  |  |  |  |  |  |  | 
CN(C)c1ccc(/C=C2\CCc3ccccc3C2=O)cc1Br | > 100 | > 100 | > 100 | > 100 | 76.8 | > 100 | > 100 | > 100 | > 100 |  |  |  |  |  |  |  |  |  |  | 
O/N=C1/C(=C/c2ccc(OCc3ccccc3)cc2)CCCC1C(NO)c1ccc(OCc2ccccc2)cc1 (stereo not drawn) | > 100 | > 100 | > 100 | > 100 | > 100 | > 100 | > 100 | 97.9 | > 100 |  |  |  |  |  |  |  |  |  |  | 
N#CC1=C(N)Oc2c(ccc3ccccc23)C1c1cc2ccccc2n2nnnc12 (stereo not drawn) | > 100 | > 100 | > 100 | > 100 | > 100 | > 100 | > 100 |  | > 100 | 2.36 | 0.685 | 1.51 | 49.3 | 0.852 | 0.611 | 2.05 | 0.702 |  | 0.725 | 0.948
CC1(C)CC(=O)C(C(=O)Nc2cccs2)=C(O)C1 | > 100 | > 100 | > 100 | > 100 | > 100 | > 100 | > 100 | 59.3 | 81.7 |  |  |  |  |  |  |  |  |  |  | 
